Here are results for 5 compounds from patent publication US9447122B2, “Arginase inhibitors and methods of use thereof” (AstraZeneca AB, priority 2010, dated 2016).

Read-outs that look alike come from different tables or passages of the source. Some results are limits rather than exact numbers.

One test concerns the target T1, arginase (Homo sapiens, UniProt P78540).
T1 sequence (P78540 23-354): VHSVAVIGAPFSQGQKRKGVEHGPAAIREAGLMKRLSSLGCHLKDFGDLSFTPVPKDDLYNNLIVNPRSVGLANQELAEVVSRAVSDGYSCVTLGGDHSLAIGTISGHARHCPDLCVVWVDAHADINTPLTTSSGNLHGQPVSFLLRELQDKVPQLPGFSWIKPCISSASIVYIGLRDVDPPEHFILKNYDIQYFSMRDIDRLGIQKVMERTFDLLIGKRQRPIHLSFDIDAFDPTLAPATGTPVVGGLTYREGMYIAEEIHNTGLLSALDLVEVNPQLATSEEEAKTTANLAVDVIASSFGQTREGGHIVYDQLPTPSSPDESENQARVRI
Conditions: literature; cited from earlier work.

Another test relates to Arg I and/or Arg II. Nature of the test: pH effect: inhibitory potency at pH 7.5 compared with pH 9.5. In kind it is biochemical, human. Here is the method:
(§1) For some compounds, their inhibitory potency at pH 7.5 was compared to the inhibitory potency of ABH at pH 7.5.
The rate of urea production was measured in the presence of twelve different concentrations of each potential inhibitor compound. In a typical assay, seven different compounds were tested relative to a control inhibitor (e.g. ABH) against one enzyme (either human ArgI or human ArgII) at a particular pH (either 9.5 or 7.5). The pH of the solution was controlled using an appropriate pH buffering compound at 60 mM concentrations; for example, 60 mM glycine (pH 9.5) or 60 mM HEPES (pH 7.5). The half maximal inhibitory concentration (IC50) was determined by constructing a dose-response curve. As IC50 values are dependent upon the measurement conditions, the IC50 values were converted to the inhibitor binding affinity (K1) using the Cheng-Prusoff equation and the affinity constant (Km) of L-arginine which was estimated with the same activity assay (see, e.g., Cheng et al., 1973, Biochem. Pharmacol. 22:3099-108).

Another test relates to female rabbits. Conditions: cited from earlier work.
In test [1] the test system is corpus cavernosum of the diabetic person. The following applies: ex vivo; cited from earlier work.
Test [2] has as its system animal model of multiple sclerosis (experimental autoimmune encephalomyelitis). The following applies: cited from earlier work.
Another test addresses T2, human arginase I (Homo sapiens, UniProt P05089).
T2 sequence (P05089 1-322): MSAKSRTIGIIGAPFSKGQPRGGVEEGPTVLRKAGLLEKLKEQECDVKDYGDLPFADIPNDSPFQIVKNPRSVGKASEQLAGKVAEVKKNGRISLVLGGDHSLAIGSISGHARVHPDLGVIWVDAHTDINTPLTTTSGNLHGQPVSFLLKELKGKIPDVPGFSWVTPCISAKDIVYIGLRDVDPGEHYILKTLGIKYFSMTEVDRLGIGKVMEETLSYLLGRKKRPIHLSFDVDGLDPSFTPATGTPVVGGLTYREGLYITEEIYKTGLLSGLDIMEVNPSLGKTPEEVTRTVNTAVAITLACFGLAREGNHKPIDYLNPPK
Nature of the test: Arginase inhibition, QuantiChrom colorimetric urea assay, IC50 converted to Ki. In kind it is biochemical. Here is the method: as §1
(§2) Quantitative determination of arginase activity was performed in a 96-well format by a colorimetric method using the QuantiChrom™ Arginase Assay Kit available from BioAssay Systems (Hayward, Calif., Catalog No. DARG-200) according to the manufacturer's protocol. Modifications were made to reagent quantities to suit the assaying of a highly purified sample.
(§3) The intensity of the color was directly proportional to the arginase activity in the sample.
(§4) The rate of urea production was measured in the presence of twelve different concentrations of each potential inhibitor compound. In a typical assay, seven different compounds were tested relative to a control inhibitor (e.g. ABH) against one enzyme (either human ArgI or human ArgII) at a particular pH (either 9.5 or 7.5). The pH of the solution was controlled using an appropriate pH buffering compound at 60 mM concentrations; for example, 60 mM glycine (pH 9.5) or 60 mM HEPES (pH 7.5). The half maximal inhibitory concentration (IC50) was determined by constructing a dose-response curve.

For another test, the target named is T3, human arginase II (Homo sapiens, UniProt P78540).
T3 sequence (P78540 23-354): T1 sequence (P78540 23-354)
The description is as above. It is filed as biochemical. Here is the method: as §1, §2, §3, §4

The next test relates to live male rabbits. Conditions: cited from earlier work.
The next test deals with guinea pigs. The following applies: nebulizer treatment, allergic asthma model; cited from earlier work.
The test system of test [3] is rabbit and human penile corpus cavernosum. The following applies: rabbit and human tissue; cited from earlier work.
Test [4] concerns opossum internal anal sphincter muscle. Conditions: cited from earlier work.
In another test the test system is breast cancer. Conditions: cited from earlier work.
For a further test, the system named is prostate cancer. The following applies: cited from earlier work.
The subject of a further test is Rats. The test can be described thus: Myocardial ischemia-reperfusion injury, infarct size IA/AR. It is filed as in vivo. The following applies: rat, 2 hrs reperfusion. How it is done:
Rats were intraperitoneally (IP) anesthetized to effect with pentobarbital (˜50 mg/kg), shaved and positioned in dorsal recumbence, intubated and ventilated (˜90 breaths/min, ˜2.5 mL tidal volume with 95% O2/5% CO2) with an adjustable small animal ventilator (Harvard Apparatus). Anesthesia was maintained with a continuous sodium pentobarbital infusion (to effect, ˜3 to 5 mg/kg/h, IV) until completion of the study via an indwelling catheter placed in a peripheral vein (e.g., femoral). Body temperature was continuously monitored throughout the duration of the surgical/experimental procedures via a rectal probe, and was maintained within the physiological range via a heated temperature-controlled (closed-loop) small animal surgical table/control unit (Vestavia Scientific).
Subsequently, transthoracic needle electrodes forming a single-lead ECG (e.g., lead II) were placed. Once a surgical plane of anesthesia had been reached, a femoral artery was isolated, dissected free from the surrounding tissue, and cannulated with a 2F high-fidelity micromanometer catheter (Millar Instruments). In order to record arterial/systemic pressures, this catheter was advanced towards the abdominal aorta. An in-dwelling catheter was also placed in a vein (i.e., jugular) for administration of the test article/vehicle, or stains (see below).
Finally, the animals were placed in right-lateral recumbence and the heart was exposed by a left-side thoracotomy/pericardiotomy. Ligatures were loosely placed (using a taper-point needle) around the proximal section of the left anterior descending artery (LAD). Tightening of these snares (via small pieces of polyethylene tubing) rendered a portion of myocardium temporarily ischemic.
Following surgical preparation, the animals were allowed to reach hemodynamic stability (for approximately 15 min), and baseline data was collected. It should be noted that in order to ensure experimental/data homogeneity, all animals must have satisfied the following entry criteria: heart rate >320 bpm and mean arterial pressure >80 mmHg. The anesthetic regime may be adjusted in order to ensure proper anesthesia/analgesia and to satisfy such inclusion criteria.
After hemodynamic stabilization and baseline measurements, the animals were treated with either vehicle or test article delivered as an intravenous bolus. Subsequently (approximately 15 min post-dosing), the animals were subjected to an acute 30 min ischemic insult by tightening of the LAD coronary artery snare. Myocardial ischemia was visually confirmed both by the appearance of cyanotic changes in distal distributions of the LAD as well as by the onset of electrocardiographic changes. After approximately 30 min of induced ischemia, the coronary snares were released and the previously ischemic myocardium was reperfused for up to 2 hrs. Treatments were not administered during either the ischemia and/or reperfusion periods. It should also be noted that in order to minimize any possible confounding effects on indices of myocardial injury, non-self-resolving malignant arrhythmias/rhythms (e.g., ventricular tachycardia/fibrillation) developing during reperfusion were considered terminal (i.e., the experiment was terminated prematurely).
At the completion of the protocol, irreversible myocardial injury (i.e., infarction) resulting from the I/R insult was evaluated. […]

The next test concerns humans. Conditions: subcutaneous administration; cited from earlier work.
Setting [5] is: Table 2, pH 7.5, read-out: human arginase I pH 7.5, Ki assigned value.
Setting [6] is: Table 2, pH 9.5, read-out: human arginase I pH 9.5, Ki assigned value.
[7] abbreviates: Table 2, pH 7.5, read-out: human arginase II pH 7.5, Ki assigned value.
Where [8] appears, read: Table 2, pH 9.5, read-out: human arginase II pH 9.5, Ki assigned value.
[9] abbreviates: 1 mg/kg iv bolus about 15 min before 30 min ischemia.
Setting [10] is: 3 mg/kg iv bolus about 15 min before 30 min ischemia.

Broadly, the Ki is a measure of affinity in units of concentration, obtained from inhibition or displacement. With `N[C@@H](CCCCB(O)O)C(=O)O` [ABH, 2(S)-amino-6-boronohexanoic acid], at arginase, the “inhibitory potency at pH 7.5 vs pH 9.5” value is “much lower at pH 7.5 than at pH 9.5”. The “increased potency for at least one isozyme” value with Arg I and/or Arg II (Table 2, pH 7.5 vs pH 9.5) was “no ^b”. Also, in the test with Arg I and/or Arg II (both or at least one of the arginases), the “potency at pH 7.5 as compared to pH 9.5, arginases” value is listed as “decrease in inhibitory potency”. In the test with female rabbits, the “engorgement response in the genitalia” value is “enhances the engorgement response”. Besides, the NO biosynthesis result in test [1] was “restores NO biosynthesis”. For the same compound, the disease score entry in [2] is listed as “improves the disease score”. Also, the Ki lay within 51 to 100 nM on human arginase I (setting [5]), 11 to 50 nM on human arginase I (setting [6]), 101 to 250 nM on human arginase II (setting [7]) and 11 to 50 nM at human arginase II (setting [8]). Besides, the erectile response entry in the test on live male rabbits is recorded as “enhances the erectile response”. Also, the airway hyperresponsiveness entry in the test with guinea pigs is “prevents airway hyperresponsiveness”. In addition, the “NO-dependent relaxation of corpus cavernosum” value in [3] is recorded as “enhances the NO-dependent relaxation”. The “relaxation of internal anal sphincter muscle” value in test [4] is reported as “relax this muscle”.
`N=C(NO)NCCC[C@H](N)C(=O)O` [N-hydroxy-L-arginine, N^Ω-hydroxy-L-arginine]: in the test on breast cancer, the “cell proliferation and apoptosis” value is “inhibits cell proliferation and induces apoptosis”. For the same compound, the tumor immunotherapy entry with prostate cancer is “facilitates tumor immunotherapy”.
Consider `CS(=O)(=O)c1ccc(CN2CCN(CCCC(N)(CCCCB(O)O)C(=O)O)CC2)cc1` (stereo not shown) [Example 10], for which the Ki was under 10 nM at human arginase I (Table 3, pH 7.5, read-out: human Arginase I pH 7.5, Ki assigned value); 11 to 50 nM at human arginase I (Table 3, pH 9.5, read-out: human Arginase I pH 9.5, Ki assigned value); 11 to 50 nM on human arginase II (Table 3, pH 7.5, read-out: human Arginase II pH 7.5, Ki assigned value); 11 to 50 nM at human arginase II (Table 3, pH 9.5, read-out: human Arginase II pH 9.5, Ki assigned value). The “Mean IA/AR (%)” value turned out to be 24% in the test on Rats (setting [9]), 22% in the test with Rats (setting [10]) and 17% in the test with Rats (10 mg/kg iv bolus about 15 min before 30 min ischemia).
`NC(CCCCB(O)O)(CCCN1CCN(Cc2ccc(Cl)c(Cl)c2)CC1)C(=O)O` (stereo not shown) [Example 8]: the Ki is under 10 nM on human arginase I (setting [5]), 11 to 50 nM at human arginase I (setting [6]), 11 to 50 nM on human arginase II (setting [7]) and 11 to 50 nM at human arginase II (setting [8]). For the same compound, the entries for the “Mean IA/AR (%)” value in the test with Rats (setting [9]) and with Rats (setting [10]) were 32% and 29%, respectively.
With `N[C@@H](CSCCB(O)O)C(=O)O` [BEC, S-(2-boronoethyl)-L-cysteine], at arginase, the “inhibitory potency at pH 7.5 vs pH 9.5” value is listed as “much lower at pH 7.5 than at pH 9.5”. In addition, the vasodilation and circulation result in the test on humans is “vasodilatory and enhances circulation”.
